# Experimental data reported in paper PMC3508689 (Biochemistry, 2011).
# Target: T1, human PPM1D catalytic domain (residues 1–420) (Homo sapiens, UniProt O15297)
# T1 sequence (O15297 1-420): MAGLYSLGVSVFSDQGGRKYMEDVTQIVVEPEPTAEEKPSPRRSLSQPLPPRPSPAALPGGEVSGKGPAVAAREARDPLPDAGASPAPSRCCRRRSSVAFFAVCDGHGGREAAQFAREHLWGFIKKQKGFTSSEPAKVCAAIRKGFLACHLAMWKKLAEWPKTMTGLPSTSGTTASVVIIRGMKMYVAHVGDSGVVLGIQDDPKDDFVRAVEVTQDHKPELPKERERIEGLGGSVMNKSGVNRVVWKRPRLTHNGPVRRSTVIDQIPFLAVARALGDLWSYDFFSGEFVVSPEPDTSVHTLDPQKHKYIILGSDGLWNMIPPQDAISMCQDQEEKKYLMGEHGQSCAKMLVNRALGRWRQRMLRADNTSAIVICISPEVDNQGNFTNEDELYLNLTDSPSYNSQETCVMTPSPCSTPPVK
# Format: biochemical
# Conditions: cyclic peptide 25 μM, ATM substrate peptide 30 μM
substance,measurement,value
cyclo[(D-Asp)-(D-Asp)-(D-pY)-(D-I)-(D-pS)-(D-F)-C]-amide [peptide 47],inhibitory activity against PPM1D (in words),no significant inhibitory activity
cyclo(F-F2Pab-I-pY-DDC)-amide [peptide 44],inhibitory activity against PPM1D (in words),did not show inhibitory activity
